Reference: BindingDB's records for doi:10.1021/acsmedchemlett.9b00381 (Dana-Farber Cancer Institute, 2019)
pIC50: −log10 of the molar value.

Key:
[1] = Inhibition of EGFR (unknown origin) expressed in mouse Ba/F3 cells assessed as reduction in cell growth incubated for 72 hrs in presence of 1 ug/ml Cetuximab by celltiter-glo luminescent cell viability assay
[2] = Inhibition of EGFR L858R mutant (unknown origin) expressed in mouse Ba/F3 cells assessed as reduction in cell growth incubated for 72 hrs in presence of 1 ug/ml Cetuximab by celltiter-glo luminescent cell viability assay
[3] = Inhibition of EGFR triple T790M/L858R/C797S mutant (unknown origin) expressed in mouse Ba/F3 cells assessed as reduction in cell growth incubated for 72 hrs in presence of 1 ug/ml Cetuximab by celltiter-glo luminescent cell viability assay
[4] = Inhibition of EGFR double T790M/L858R mutant (unknown origin) expressed in mouse Ba/F3 cells assessed as reduction in cell growth incubated for 72 hrs in presence of 1 ug/ml Cetuximab by celltiter-glo luminescent cell viability assay

SMILES | pIC50 [1] | pIC50 [2] | pIC50 [3] | pIC50 [4]
O=C1c2cc(-c3ccc(N4CCNCC4)cc3)ccc2Nc2ccc(F)cc2N1Cc1ccccc1 | 5.39 | 5.43 | 6.03 | 6.11
CN1CCN(c2ccc(Oc3ccc4c(c3)C(=O)N(Cc3ccccc3)c3cc(F)ccc3N4)cc2)CC1 | 5.49 | 5.57 | 6.70 | 6.44
